From US10059663B2, “Aromatic compound and use thereof” (Kyoto Pharmaceutical Industries, Ltd., priority 2013, dated 2018) come the findings set out here.

This assay relates to Mouse bone marrow-derived mesenchymal cell line ST2 cells. Briefly: Osteoblast differentiation test (alkaline phosphatase activity). In kind it is cell-based. The conditions noted are these: ST-2, 96 h, at 0.1 μg/mL, 4 days of culture, absorbance at 405 nm, DMSO control = 100%, read-out: alkaline phosphatase activity (increase rate in absorbance, control as 100%). The procedure: Mouse bone marrow-derived mesenchymal cell line ST2 cells (source of supply: RIKEN) were seeded in α-MEM medium containing 10% fetal bovine serum (source of supply: GIBCO BRL Cat. No. 12000-022) in a 96 well plate at a cell density of 4×10^3 cells/0.1 mL/well, and cultured for 24 hr under the conditions of 37° C., 5% CO2. Then, each test compound was added at a final concentration of 0.001-10 μM, and the final concentration 0.1% (v/v) of DMSO was added to the control. After 4 days of culture, alkaline phosphatase (ALP) activity was measured by the following method.
The medium in the cultured 96 well plate was removed, the cells were washed with PBS buffer (KCl 0.2 g/L, KH2PO4 0.2 g/L, Na2HPO4.12H2O 2.9 g/L, NaCl 8 g/L) (100 μL/well), cell lysate (10 mM MgCl2, 2% (v/v) Triton X-100) (50 μL/well) was added, and the mixture was stirred at room temperature for 3 min. A substrate solution (50 mM diethanolamine (Wako Pure Chemical Industries, Ltd. Cat. No. 099-03112), 20 mM […] (Nacalai Tesque Cat. No. 25019-81)) (50 μL/well) was added, and the mixture was left standing at room temperature for 9 min. 1N NaOH 50 μL/well was added to discontinue the reaction, and the absorbance at 405 nm was measured by a microplate reader (Dainippon Pharmaceutical Co., Ltd.)
An increase rate (%) in the absorbance by the test compound was calculated based on the absorbance of the control as 100%, and the differentiation degree of the osteoblast was evaluated.
Regarding `CC(=O)c1ccc(C(N)=O)cc1Nc1ccc(N2CC(OCC3CCCO3)C2)cc1` (stereo not drawn) [Example 92], the activity at 0.1 µg/mL is not below 200%.

As for `COc1cc(Nc2ccc(N3CCN(CC(C)(C)C(=O)O)CC3)cc2)c([N+](=O)[O-])cc1F` [Example 13, 3-{4-[4-(4-fluoro-5-methoxy-2-nitrophenylamino)phenyl]piperazin-1-yl}-2,2-dimethylpropionic acid], the activity at 0.1 µg/mL was not below 200%.

For the compound `NC(=O)c1ccc([N+](=O)[O-])c(Nc2ccc(N3CC(OCCO)C3)cc2)c1` [Example 5, 3-{4-[3-(2-hydroxyethoxy)azetidin-1-yl]phenylamino}-4-nitrobenzamide], the activity at 0.1 µg/mL was not below 200%.

Take `CC(=O)c1ccc(C(N)=O)cc1Oc1ccc(COC2CCOCC2)cc1` [Example 41, 4-acetyl-3-[4-(tetrahydropyran-4-yloxymethyl)phenoxy]benzamide]: the activity at 0.1 µg/mL was not below 200%.

With `CC(=O)c1ccc(C(N)=O)c(Oc2ccc(N3CC(OCCO)C3)cc2)c1` [Example 29, 4-acetyl-2-{4-[3-(2-hydroxyethoxy)azetidin-1-yl]phenoxy}benzamide], the activity at 0.1 µg/mL is not below 200%.

Take `CC(=O)c1ccc(C(N)=O)cc1Oc1ccc(/C=C/COC2CCOCC2)cc1` [Example 34, 4-acetyl-3-{4-[3-(tetrahydropyran-4-yloxy)propenyl]phenoxy}benzamide]: the activity at 0.1 µg/mL is not below 200%.

Consider `CC(=O)c1ccc(C(N)=O)cc1Oc1ccc(N2CC(O)C2)cc1` [Example 96], for which the activity at 0.1 µg/mL was not below 200%.

As to `CCC(=O)Nc1cnc(OC)cc1Nc1ccc(N2CC(OCCO)C2)cc1` [Example 45], the activity at 0.1 µg/mL was not below 200%.

For `CC(F)(F)c1ccc(C(N)=O)cc1Nc1ccc(OCCOC2CCOCC2)cc1` [Example 18, 4-(1,1-difluoroethyl)-3-{4-[2-(tetrahydropyran-4-yloxy)ethoxy]phenylamino}benzamide], the activity at 0.1 µg/mL was not below 200%.

For the compound `CC(=O)Nc1ccc(C(N)=O)cc1Nc1ccc(N2CC(OCC3CCCO3)C2)cc1` (stereo not drawn) [Example 91], the activity at 0.1 µg/mL is not below 200%.

With `COc1cc(Nc2ccc(N3CC(O)C3)cc2)c(NC(C)=O)cn1` [Example 88], the activity at 0.1 µg/mL was not below 200%.

With `NC(=O)c1ccc(C(F)(F)F)c(Nc2ccc(N3CC(OCCO)C3)cc2)c1` [Example 47], the activity at 0.1 µg/mL is not below 200%.

Take `CC(=O)c1ccc(C(N)=O)cc1Oc1ccc(N2CCC(OCCO)CC2)cc1` [Example 30, 4-acetyl-3-{4-[4-(2-hydroxyethoxy)piperidin-1-yl]phenoxy}benzamide]: the activity at 0.1 µg/mL was not below 200%.

Turning to `CC(=O)c1ccc(C(N)=O)cc1Oc1ccc(CCCOC2CCOCC2)cc1` [Example 66], the activity at 0.1 µg/mL is not below 200%.

For the compound `CC(F)c1ccc(C(N)=O)cc1Oc1ccc(OCCOC2CCOCC2)cc1` (stereo not drawn) [Example 39, 4-(1-fluoroethyl)-3-{4-[2-(tetrahydropyran-4-yloxy)ethoxy]phenoxy}benzamide], the activity at 0.1 µg/mL is not below 200%.

Take `CC(=O)c1ccc(C(N)=O)cc1Oc1ccc(COCCOC(C)C)cc1` [Example 40, 4-acetyl-3-[4-(2-isopropoxyethoxymethyl)phenoxy]benzamide]: the activity at 0.1 µg/mL is not below 200%.

Regarding `NC(=O)c1ccc([N+](=O)[O-])c(Nc2ccc(N3CC(OCC4CCCO4)C3)cc2)c1` (stereo not drawn) [Example 90], the activity at 0.1 µg/mL was not below 200%.

With `CC(=O)c1ccc(C(N)=O)c(Oc2ccc(OCCOC3CCOCC3)cc2)c1` [Example 70], the activity at 0.1 µg/mL was not below 200%.

For `CC(=O)c1ccc(C(N)=O)cc1Oc1ccc(N2CCC2)cc1` [Example 97], the activity at 0.1 µg/mL is not below 200%.

Take `COc1cc(Nc2ccc(N3CC(OCCNS(N)(=O)=O)C3)cc2)c(NC(C)=O)cn1` [Example 16, N-(4-{4-[3-(2-sulfamoylaminoethoxy)azetidin-1-yl]phenylamino}-6-methoxypyridin-3-yl)acetamide]: the activity at 0.1 µg/mL is not below 200%.

Take `NC(=O)c1ccc([N+](=O)[O-])c(Oc2ccc(N3CCC(OCCO)CC3)cc2)c1` [Example 63]: the activity at 0.1 µg/mL was not below 200%.

With `NC(=O)c1ccc(C(F)F)c(Oc2ccc(COC3CCOCC3)cc2)c1` [Example 83], the activity at 0.1 µg/mL is not below 200%.

On to `CC(=O)c1ccc(C(N)=O)cc1Oc1ccc(N2CC(OCCO)C2)cc1` [Example 28, 4-acetyl-3-{4-[3-(2-hydroxyethoxy)azetidin-1-yl]phenoxy}benzamide], for which the activity at 0.1 µg/mL is not below 200%.

Regarding `COc1cc(Nc2ccc(N3CC(OCCO)C3)cc2)c([N+](=O)[O-])cc1F` [Example 2, 2-{1-[4-(4-fluoro-5-methoxy-2-nitrophenylamino)phenyl]azetidin-3-yloxy}ethanol], the activity at 0.1 µg/mL is not below 200%.

Regarding `CC(F)(F)c1ccc(C(N)=O)cc1Oc1ccc(OCCOC2CCOCC2)cc1` [Example 74], the activity at 0.1 µg/mL was not below 200%.

As for `CC(=O)c1ccc(C(N)=O)cc1Oc1ccc(OCCOCCOC(C)C)cc1` [Example 33, 4-acetyl-3-{4-[2-(2-isopropoxyethoxy)ethoxy]phenoxy}benzamide], the activity at 0.1 µg/mL was not below 200%.

As to `NC(=O)c1ccc(C(F)(F)F)c(Oc2ccc(OCCOC3CCOCC3)cc2)c1` [Example 64], the activity at 0.1 µg/mL is not below 200%.

As for `COc1cc(Nc2ccc(N3CC(N4CCC(CO)CC4)C3)cc2)c(NC(C)=O)cn1` [Example 8, N-(4-{4-[3-(4-hydroxymethylpiperidin-1-yl)azetidin-1-yl]phenylamino}-6-methoxypyridin-3-yl)acetamide], the activity at 0.1 µg/mL is not below 200%.

For the compound `CC(=O)c1ccc(C(N)=O)cc1Nc1ccc(OCCOC2CCOC2)cc1` (stereo not drawn) [Example 53], the activity at 0.1 µg/mL is not below 200%.

`NC(=O)c1ccc(C(F)(F)F)c(Oc2ccc(N3CC(OCCO)C3)cc2)c1` [Example 62]: the activity at 0.1 µg/mL was not below 200%.

In the case of `NC(=O)c1ccc(C(F)F)c(Oc2ccc(OCCOC3CCOCC3)cc2)c1` [Example 35, 4-difluoromethyl-3-{4-[2-(tetrahydropyran-4-yloxy)ethoxy]phenoxy}benzamide], the activity at 0.1 µg/mL is not below 200%.

For the compound `COc1cc(Nc2ccc(N3CC(OCC4CCCO4)C3)cc2)c(NC(C)=O)cn1` (stereo not drawn) [Example 89], the activity at 0.1 µg/mL is not below 200%.

Consider `NC(=O)c1ccc(C(F)(F)F)c(Oc2ccc(COC3CCOCC3)cc2)c1` [Example 82], for which the activity at 0.1 µg/mL is not below 200%.

For the compound `CC(=O)c1ccc(C(N)=O)cc1Nc1ccc(N2CC(OCCO)C2)cc1` [Example 6, 4-acetyl-3-{4-[3-(2-hydroxyethoxy)azetidin-1-yl]phenylamino}benzamide], the activity at 0.1 µg/mL is not below 200%.

With `COc1cc(Nc2ccc(N3CC(N4CCOCC4)C3)cc2)c(NC(C)=O)cn1` [Example 9, N-{6-methoxy-4-[4-(3-morpholin-4-ylazetidin-1-yl)phenylamino]pyridin-3-yl}acetamide], the activity at 0.1 µg/mL was not below 200%.

Turning to `C[C@@H](O)c1ccc(C(N)=O)cc1Oc1ccc(N2CC(CO)C2)cc1` [Example 94], the activity at 0.1 µg/mL is not below 200%.

`CC(=O)c1ccc(C(N)=O)c(Nc2ccc(OCCOC3CCS(=O)(=O)CC3)cc2)c1` [Example 58]: the activity at 0.1 µg/mL was not below 200%.

As for `CC(=O)c1ccc(C(N)=O)c(Nc2ccc(OCCOC3CCOCC3)cc2)c1` [Example 57], the activity at 0.1 µg/mL is not below 200%.

On to `CC(=O)c1ccc(C(N)=O)cc1Oc1ccc(N2CC(CO)C2)cc1` [Example 95], for which the activity at 0.1 µg/mL is not below 200%.

Turning to `CC(=O)c1ccc(C(N)=O)cc1Nc1ccc(OCCOC2CCS(=O)(=O)CC2)cc1` [Example 20, 4-acetyl-3-{4-[2-(1,1-dioxohexahydro-1λ^6-thiopyran-4-yloxy)ethoxy]phenylamino}benzamide], the activity at 0.1 µg/mL was not below 200%.

With `CC(=O)c1ccc(C(N)=O)cc1Nc1ccc(OCCOC2CCOCC2)cc1` [Example 17, 4-acetyl-3-{4-[2-(tetrahydropyran-4-yloxy)ethoxy]phenylamino}benzamide], the activity at 0.1 µg/mL is not below 200%.

With `NC(=O)c1ccc([N+](=O)[O-])c(Nc2ccc(OCCOC3CCOCC3)cc2)c1` [Example 50], the activity at 0.1 µg/mL was not below 200%.

In the case of `CNC(=O)c1ccc([N+](=O)[O-])c(Nc2ccc(N3CC(OCCO)C3)cc2)c1` [Example 48], the activity at 0.1 µg/mL is not below 200%.

For `CC(C)OCCOCCOc1ccc(Oc2cc(C(N)=O)ccc2C(F)(F)F)cc1` [Example 65], the activity at 0.1 µg/mL is not below 200%.

With `C[C@@H](O)c1ccc(C(N)=O)cc1Oc1ccc(N2CC(OCCO)C2)cc1` [Example 85], the activity at 0.1 µg/mL is not below 200%.
